# Results: patent publication US11261201B2 (priority 2018, dated 2022)
# Where a name gives a salt, the structure may show the parent alone. Read-outs that look alike come from different tables or passages of the source.
# What was measured:
# A. baumannii = assay: Gram negative MIC protocol (OD600, LB, 24 h); details: for MIC: Acinetobacter baumannii
# Procedure: (§1) Overnight bacterial cultures were grown in LB with no added antibiotics at 37° C. with shaking. A 1:1000 dilution of these cultures into LB was exposed to concentration gradients of compounds in 96-well plates (100 μL per well assay volume). Resulting plates were incubated at 37° C. for 24 h without shaking, and OD600 was measured at the end of the incubation. MICs were determined as the lowest concentrations at which OD600 remained at baseline.
# H37RvMA = assay: Tuberculosis Alamar Blue/Resazurin assay (MIC); type: cell-based; details: read-out: WT H37Rv MTB Activity
# E. coli = assay: Gram negative MIC protocol (OD600, LB, 24 h); details: for MIC: Escherichia coli
# Procedure: as §1
# [1] = read-out: MIC A. baumannii LB Media, A. baumannii, LB media, 24 h, OD600
# [2] = Mycobacterium tuberculosis, H37RV, WT H37Rv MTB
# [3] = read-out: MIC E. coli delta-TolC LB Media, E. coli delta-TolC, LB media, OD600
# [4] = read-out: MIC WT E. coli LB Media, WT E. coli, LB media, OD600
# [5] = read-out: MIC A. baumannii LB Media
# [6] = Mycobacterium tuberculosis, H37RV
# [7] = read-out: MIC E. coli delta-TolC LB Media, E. coli delta-TolC strain, LB media, 24 h, OD600
# [8] = read-out: MIC WT E. coli LB Media, wild-type E. coli, LB media, 24 h, OD600
Compound,MIC (A. baumannii; [1]) [µM],MIC (H37RvMA; [2]) [µM],MIC (E. coli; [3]) [µM],MIC (E. coli; [4]) [µM],MIC (E. coli; [7]) [µM],MIC (E. coli; [8]) [µM],also measured
c1ccc(CNC2CC23CCCCC3)cc1 (stereo not shown) [B125],> 150,> 150,> 150,> 150,–,–,–
"CC(CC1CCCCC1)NCc1ccccc1OCc1ccccc1C1CC1 (stereo not shown) [B462, 1-cyclohexyl-N-(2-((2-cyclopropylbenzyl)oxy)benzyl)propan-2-amine]",33,10,4,> 150,–,–,–
"CC(CC1CCCCC1)NCc1ccccc1NC(=O)c1ccccc1F (stereo not shown) [B398, N-(2-(((1-cyclohexylpropan-2-yl)amino)methyl)phenyl)-2-fluorobenzamide hydrochloride]",> 150,150,91,> 150,–,–,–
C1=Nc2cccc(CCNCc3ccccc3)c2C1 [B57],–,–,> 150,> 150,–,–,MIC (A. baumannii; [5]): > 150 µM; MIC (H37RvMA; [6]): > 150 µM
FC1(F)C2CCCCC21CCNCc1ccccc1 (stereo not shown) [B183],> 300,> 150,> 300,> 300,–,–,–
c1ccc(CNCCc2ccc3[nH]ccc3c2)cc1 [B56],–,–,> 150,> 150,–,–,MIC (A. baumannii; [5]): > 150 µM; MIC (H37RvMA; [6]): > 150 µM
CC(Cc1ccc2ccccc2c1)NCc1ccccc1 (stereo not shown) [B194],–,–,–,–,–,–,"MIC A. baumannii LB Media (A. baumannii; A. baumannii, LB media, OD600): 300 µM; MIC (H37RvMA): 150 µM; MIC E. coli delta-TolC LB Media (E. coli; E. coli delta-TolC, LB media, OD600): 170 µM; MIC WT E. coli LB Media (E. coli; WT E. coli, LB media, OD600): >300 µM"
CC(C)NC(=O)COc1ccccc1CNC(C)CC1CCCCC1 (stereo not shown) [B358],> 150,> 150,–,–,20,> 150,–
CC1CCC(CCNCc2ccccc2)CC1 (stereo not shown) [B221],220,150,–,–,150,300,–
CC(CC1CCCCC1)NCc1ccccc1OCc1ncnn1C (stereo not shown) [B248],> 150,> 150,–,–,20,> 150,–
O=C1Cc2ccccc2CN1CCC1CCCCC1 [B379],> 150,–,–,–,150,> 150,–
c1ccc(CNCCN2CCCC3CCCC32)cc1 (stereo not shown) [B126],> 150,> 150,> 150,> 150,–,–,–
"O=C1Cc2ccccc2CN1CCC1CCOCC1 [B430, 2-(2-(tetrahydro-2H-pyran-4-yl)ethyl)-1,4-dihydroisoquinolin-3(2H)-one]",> 150,55.1,> 150,> 150,–,–,–
C1=CC2CC1CC2CCNCc1ccccc1 (stereo not shown) [B70],> 150,> 150,> 150,> 150,–,–,–
c1ccc(CNCCC2CCC2)cc1 [B30],> 150,> 150,> 150,> 150,–,–,–
"CC(/C=C/C1CCCCC1)NCc1ccccc1 (stereo not shown) [B219, (E)-N-benzyl-4-cyclohexylbut-3-en-2-amine]",> 300,> 150,–,–,> 300,> 300,–
CC(CC1CCCCC1)NCc1ccccc1OCc1cccc(F)c1 (stereo not shown) [B383],91,12.2,–,–,2,55,–
CC(CC1CCCCC1)NCc1ccccc1OCCCO (stereo not shown) [B251],91,> 150,–,–,7,91,–
CC(CC1CCCCC1)NCc1ccccc1OCc1nnn(C)n1 (stereo not shown) [B322],150,> 150,–,–,4,150,–
Clc1cccc(CNCCC2CCCCC2)c1 [B351],> 150,> 150,–,–,> 150,> 150,–
c1ccc(CNCCC2CCOC2)cc1 (stereo not shown) [B40],> 150,> 150,> 150,> 150,–,–,–

Compound,MIC (A. baumannii; [1]) [µM],MIC (H37RvMA; [2]) [µM],MIC (E. coli; [3]) [µM],MIC (E. coli; [4]) [µM],MIC (E. coli; [7]) [µM],MIC (E. coli; [8]) [µM],also measured
C[C@H](NCc1ccccc1)[C@H](O)c1ccc2c(c1)OCO2 [B53],> 150,–,> 150,> 150,–,–,MIC (H37RvMA; [6]): > 150 µM
C=CCOc1ccccc1CNC(C)CC1CCCCC1 (stereo not shown) [B289],150,150,–,–,3,91,–
Cc1ccc(CNC2CCCCC2)cc1 [B137],> 150,> 150,> 150,> 150,–,–,–
"CC(CC1CCCCC1)NCc1ccccc1OC1C2CC3CC(C2)CC1C3 [B404, N-(2-(((1R,3S,5r,7r)-adamantan-2-yl)oxy)benzyl)-1-cyclohexylpropan-2-amine]",150,20.2,7,> 150,–,–,–
CCN1CC(COc2ccccc2CNC(C)CC2CCCCC2)OC1=O (stereo not shown) [B369],> 150,> 150,–,–,3,> 150,–
"Nc1ccccc1CNCCC1CCCCC1 [B235, 2-((2-cyclohexylethylamino)methyl)aniline hydrochloride]",> 300,> 150,–,–,96,96,–
"Cc1ccccc1CNCCC1=CCCCC1 [B13, 2-(cyclohex-1-en-1-yl)-N-(2-methylbenzyl)ethan-1-amine]",150,> 150,55,90,–,–,–
"O=C1Cc2ccccc2CN1CCC1CCSCC1 [B410, 2-(2-(tetrahydro-2H-thiopyran-4-yl)ethyl)-1,4-dihydroisoquinolin-3(2H)-one]",> 150,> 150,> 150,> 150,–,–,–
CC(CC1CCCCC1)NCc1ccccc1OCC(O)C(C)C (stereo not shown) [B342],150,91,–,–,4,150,–
"CC(C)(C)OC(=O)N(Cc1ccccc1)C(C=O)CC1CCCCC1 (stereo not shown) [B210, tert-butyl benzyl(1-cyclohexyl-3-oxopropan-2-yl)carbamate]",> 300,> 150,–,–,> 300,> 300,–
CC(CC1CCCCC1)NCc1ccccc1OCC1(CO)COC1 (stereo not shown) [B269],55,> 150,–,–,7,> 150,–
"CC1CCCC(CCN2Cc3ccccc3CC2=O)C1 (stereo not shown) [B464, 2-(2-(3-methylcyclohexyl)ethyl)-1,4-dihydroisoquinolin-3(2H)-one]",> 150,2,90,> 150,–,–,–
c1ccc(CNCCC2CSc3ccccc3O2)cc1 (stereo not shown) [B118],> 150,> 150,> 150,> 150,–,–,–
c1ccc(CNCC2CC23CCCc2ccccc23)cc1 (stereo not shown) [B107],> 150,> 150,> 150,> 150,–,–,–
c1ccc(CNCC2CCCc3ccccc32)cc1 (stereo not shown) [B127],> 150,150,> 150,> 150,–,–,–
CC1(C)[C@@H]2C[C@](C)(CNCc3ccccc3)C[C@@H]21 [B88],> 150,> 150,> 150,> 150,–,–,–
CC(CNCc1ccccc1)C1CCCCC1 (stereo not shown) [B103],> 150,> 150,150,150,–,–,–
OC(CNCc1ccccc1)c1cccc2ccccc12 (stereo not shown) [B193],300,150,300,> 300,–,–,–
c1cc(CNCCC2CCCCC2)c2sccc2c1 [B354],> 150,150,–,–,150,> 150,–
CC(CC1CCCCC1)NCc1ccccc1OC1CCCC1 (stereo not shown) [B288],150,91,–,–,3,> 150,–
c1ccc(CNCCC2CCSCC2)cc1 [B332],> 150,–,–,–,> 150,> 150,–
